Patent US3941850A, “α,α,α',α'-TETRAKIS(4-HYDROXY-3,5-DISUBSTITUTED PHENYL)XYLENE” (The Quaker Oats Company, priority 1974, dated 1976)
Blank lines part the entries; values can stand above or below the compound they belong to.

Experiments:
[1] = Antioxidant evaluation in cis-polyisoprene (IR carbonyl band, film in oven); details: 130°C oven, 0.100 g antioxidant, until carbonyl band exceeded 6 cm
Experimental: A number of candidate antioxidants were evaluated in cis-polyisoprene. Cis-polyisoprene was cut up into small pieces and dissolved overnight in a rapidly stirred solution of 500 ml of toluene. If the antioxidant was readily soluble in toluene, 0.100 g was then added to the cis-polyisoprenetoluene solution and stirred until it dissolved. If the antioxidant was not readily soluble in toluene it was dissolved in a small amount of an appropriate solvent and then added to the toluene solution. A sample of the solution was then taken up in a capillary dropper and 15 drops were placed on a circular sodium chloride plate, 1 inch in diameter. The plate was then put in a 130°C. oven for a few minutes to evaporate the toluene.
An infrared spectrum was run of the film on the plate. The plate was then put back in the oven. Every hour it was removed and another infrared spectrum was run. This procedure was repeated until appreciable oxidation had taken place as indicated by the appearance of a carbonyl band at 1700-1750 cm^^-1. The test was ended when the carbonyl band exceded 6 cm on a Perkin Elmer Infrared Spectophotometer, Model 710. This length is approximately equal to the length of the peak at 1450 cm^^-1.

[2] = Solubility in ethanol and toluene; type: physicochemical; details: 27°C
[3] = Heat aging test of polypropylene film; details: 140°C, 5 mil film, 0.1 % by weight tetraphenolic derivative, 0 synergist
Experimental: A number of candidate stabilizers were incorporated in 5 mil thick samples of polypropylene film, and the resulting materials evaluated by heat aging the films. In some of the tests where indicated dilaurylthiodipropionate was added as synergist.
In the heat aging test, polypropylene film samples 5 mil in thickness were maintained in an oven at 140°C. Each sample was tested for loss of structural integrity. The number of hours shown in the table are the total elapsed hours before the film cracked or embrittled when flexed. The film was embrittled when it crumbled to a powder.

Compound: CCCCC(CC)Cc1cc(C(c2ccc(C(c3cc(CC(CC)CCCC)c(O)c(CC(CC)CCCC)c3)c3cc(CC(CC)CCCC)c(O)c(CC(CC)CCCC)c3)cc2)c2cc(CC(CC)CCCC)c(O)c(CC(CC)CCCC)c2)cc(CC(CC)CCCC)c1O (centres unmarked) [Test 20]
Maximum Protection [1]: 3 h

Compound: Cc1ccc(Cc2cc(C(c3ccc(C(c4cc(Cc5ccc(C)cc5)c(O)c(Cc5ccc(C)cc5)c4)c4cc(Cc5ccc(C)cc5)c(O)c(Cc5ccc(C)cc5)c4)cc3)c3cc(Cc4ccc(C)cc4)c(O)c(Cc4ccc(C)cc4)c3)cc(Cc3ccc(C)cc3)c2O)cc1 [Test 22]
Maximum Protection [1]: 6 h

Compound: CC(C)c1cc(C(c2ccc(C(c3cc(C(C)C)c(O)c(C(C)C)c3)c3cc(C(C)C)c(O)c(C(C)C)c3)cc2)c2cc(C(C)C)c(O)c(C(C)C)c2)cc(C(C)C)c1O [Test 16]
Maximum Protection [1]: 7 h

Compound: CCC(C)c1cc(C(c2ccc(C(c3cc(C(C)CC)c(O)c(C(C)CC)c3)c3cc(C(C)CC)c(O)c(C(C)CC)c3)cc2)c2cc(C(C)CC)c(O)c(C(C)CC)c2)cc(C(C)CC)c1O (centres unmarked) [Test 17]
Maximum Protection [1]: 7 h

Compound: Cc1cc(C(c2ccc(C(c3cc(C)c(O)cc3C)c3cc(C)c(O)cc3C)cc2)c2cc(C)c(O)cc2C)c(C)cc1O [Test 13]
Maximum Protection [1]: 3 h

Solubility, Ethanol [2]: < .14 g/100 ml
Solubility, Toluene [2]: < .17 g/100 ml
Compound: Cc1cc(C(c2ccc(C(c3cc(C)c(O)cc3C)c3cc(C)c(O)cc3C)cc2)c2cc(C)c(O)cc2C)c(C)cc1O [Test 29]

Compound: Cc1cc(C(c2ccc(C(c3cc(C)c(O)c(C)c3)c3cc(C)c(O)c(C)c3)cc2)c2cc(C)c(O)c(C)c2)cc(C)c1O [Test 24]
Oven Hours, Cracked [3]: 31 h
Oven Hours, Embrittled [3]: 31 h

Compound: CC(C)Cc1cc(C(c2ccc(C(c3cc(CC(C)C)c(O)c(CC(C)C)c3)c3cc(CC(C)C)c(O)c(CC(C)C)c3)cc2)c2cc(CC(C)C)c(O)c(CC(C)C)c2)cc(CC(C)C)c1O [Test 18]
Maximum Protection [1]: 6 h

Solubility, Ethanol [2]: 3 g/100 ml
Solubility, Toluene [2]: < .17 g/100 ml
Compound: Cc1cc(C(c2ccc(C(c3cc(C)c(O)c(C)c3)c3cc(C)c(O)c(C)c3)cc2)c2cc(C)c(O)c(C)c2)cc(C)c1O [Test 28]

Solubility, Ethanol [2]: > 9 g/100 ml
Solubility, Toluene [2]: > 9 g/100 ml
Compound: Cc1cc(C(c2ccc(C(c3cc(C)c(O)c(C(C)(C)C)c3)c3cc(C)c(O)c(C(C)(C)C)c3)cc2)c2cc(C)c(O)c(C(C)(C)C)c2)cc(C(C)(C)C)c1O [Test 30]

Compound: Cc1cc(C(c2ccc(C(c3cc(C)c(O)cc3C)c3cc(C)c(O)cc3C)cc2)c2cc(C)c(O)cc2C)c(C)cc1O [Test 26]
Oven Hours, Cracked [3]: 30 h
Oven Hours, Embrittled [3]: 30 h

Compound: Oc1c(Cc2ccccc2)cc(C(c2ccc(C(c3cc(Cc4ccccc4)c(O)c(Cc4ccccc4)c3)c3cc(Cc4ccccc4)c(O)c(Cc4ccccc4)c3)cc2)c2cc(Cc3ccccc3)c(O)c(Cc3ccccc3)c2)cc1Cc1ccccc1 [Test 21]
Maximum Protection [1]: 7 h

Compound: Cc1cc(C(c2ccc(C(c3cc(C)c(O)c(C(C)(C)C)c3)c3cc(C)c(O)c(C(C)(C)C)c3)cc2)c2cc(C)c(O)c(C(C)(C)C)c2)cc(C(C)(C)C)c1O [Test 14]
Maximum Protection [1]: 13 h

Compound: CC(C)(C)c1cc(C(c2ccc(C(c3cc(C(C)(C)C)c(O)c(C(C)(C)C)c3)c3cc(C(C)(C)C)c(O)c(C(C)(C)C)c3)cc2)c2cc(C(C)(C)C)c(O)c(C(C)(C)C)c2)cc(C(C)(C)C)c1O [Test 19]
Maximum Protection [1]: 16 h

Compound: Cc1cc(C(c2ccc(C(c3cc(C)c(O)c(C)c3)c3cc(C)c(O)c(C)c3)cc2)c2cc(C)c(O)c(C)c2)cc(C)c1O [Test 12]
Maximum Protection [1]: 8 h

Solubility, Ethanol [2]: > 9 g/100 ml
Solubility, Toluene [2]: < .17 g/100 ml
Compound: Cc1cc(O)c(C(C)(C)C)cc1C(c1ccc(C(c2cc(C(C)(C)C)c(O)cc2C)c2cc(C(C)(C)C)c(O)cc2C)cc1)c1cc(C(C)(C)C)c(O)cc1C [Test 31]

Compound: Cc1cc(O)c(C(C)(C)C)cc1C(c1ccc(C(c2cc(C(C)(C)C)c(O)cc2C)c2cc(C(C)(C)C)c(O)cc2C)cc1)c1cc(C(C)(C)C)c(O)cc1C [Test 15]
Maximum Protection [1]: 6 h
